One may read the IC50 as the point on the concentration scale where inhibition reaches its midpoint.

The values that follow come from patent US8664257B2, “Oxygen-substituted 3-heteroaroylamino-propionic acid derivatives and their use as pharmaceuticals” (Sanofi, priority 2010, dated 2014).

The assay deals with T1, Recombinant human cathepsin A (Homo sapiens, UniProt P10619).
T1 construct: Recombinant human cathepsin A (residues 29-480, with a C-terminal 10-His tag); 10-His (C); purchased R&D Systems 1049-SE
T1 sequence (P10619 29-312 limits assumed): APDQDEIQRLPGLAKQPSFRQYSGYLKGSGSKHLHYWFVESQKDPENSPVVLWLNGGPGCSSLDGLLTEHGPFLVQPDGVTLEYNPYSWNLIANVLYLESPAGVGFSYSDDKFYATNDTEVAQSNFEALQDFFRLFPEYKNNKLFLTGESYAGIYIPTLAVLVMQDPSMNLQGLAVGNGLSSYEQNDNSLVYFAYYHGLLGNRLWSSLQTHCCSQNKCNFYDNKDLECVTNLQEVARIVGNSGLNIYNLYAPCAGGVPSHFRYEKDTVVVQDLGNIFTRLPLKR
T1 sequence (P10619 327-480 limits assumed): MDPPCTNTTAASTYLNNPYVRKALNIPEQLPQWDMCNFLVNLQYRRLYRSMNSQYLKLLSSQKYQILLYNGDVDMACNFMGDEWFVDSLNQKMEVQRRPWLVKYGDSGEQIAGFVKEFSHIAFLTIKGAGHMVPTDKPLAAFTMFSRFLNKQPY
The assay can be described thus: Cathepsin A inhibitory activity. The assay is classed as biochemical. Summed up:
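Read-out was microfluidic separation of cleaved vs. uncleaved Bodipy FL-bradykinin (2 μM), giving turnover, % inhibition and IC50. Compound and 833 ng/ml enzyme met for 15 min RT in pH 5.5 MES/DTT before substrate (15 min RT). The 29-480 His-tagged human enzyme was first activated by cathepsin L, then E-64 (10 μM).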

Where [1] appears, read: read-out: Activity (2): Cathepsin A inhibitory activity, IC50 class.
Setting [2] is: read-out: Activity (2): Cathepsin A inhibitory activity (IC50 class).
Setting [3] is: recombinant human cathepsin A 833 ng/ml, Bodipy FL-labeled bradykinin 2 μM, pH 5.5, read-out: CATH-A IC50.
The mark [4] stands for this setting: recombinant human cathepsin A, read-out: Activity (2): Cathepsin A inhibitory activity, IC50 class.
Setting [5] is: pharmacological test "Cathepsin A inhibitory activity", IC50 given as class A/B/C, read-out: Activity (2): Cathepsin A inhibitory activity, IC50 class.

Molecules are shown by their SMILES. Read-outs that look alike come from different tables or passages of the source.

For the molecule `COc1ccc([C@H](CC(=O)O)NC(=O)c2cc(OC[C@](C)(O)C(C)C)n(-c3ccccc3F)n2)cc1` [Example 850, (S)-3-{[1-(2-Fluoro-phenyl)-5-((R)-2-hydroxy-2,3-dimethyl-butoxy)-1H-pyrazole-3-carbonyl]-amino}-3-(4-methoxy-phenyl)-propionic acid], under setting [1], the IC50 is < 100 nM.

In the case of `O=C(O)CC(NC(=O)c1cc(O)n(-c2ccccc2F)n1)c1ccc(-c2ccccc2Cl)cc1` (centres unmarked) [Example 542], the IC50 under setting [2] is < 100 nM. Consider `Cc1ccc([C@H](CC(=O)O)NC(=O)c2cc(OCC3CC3)n(-c3ccccc3F)n2)cc1` [Example 695], for which the concentration for half-maximal inhibition (IC50) under setting [2] is < 100 nM.

Turning to `COc1cc(C(=O)NC(CC(=O)O)c2cccc(C)c2C)nn1-c1ccccc1F` (centres unmarked) [Example 682, 3-(2,3-Dimethyl-phenyl)-3-{[1-(2-fluoro-phenyl)-5-methoxy-1H-pyrazole-3-carbonyl]-amino}-propionic acid], the concentration for half-maximal inhibition (IC50) under setting [2] is < 100 nM. Consider `Cc1c(F)cccc1C(CC(=O)O)NC(=O)c1cc(O)n(-c2cccc(Cl)c2)n1` (centres unmarked) [Example 508, 3-{[1-(3-Chloro-phenyl)-5-hydroxy-1H-pyrazole-3-carbonyl]-amino}-3-(3-fluoro-2-methyl-phenyl)-propionic acid], for which the 50% inhibitory concentration (IC50) is 137 nM under setting [3] and 100 to 1000 nM under setting [4]. With `O=C(O)CC(NC(=O)c1cc(O)n(-c2ccccc2Cl)n1)c1cc(F)ccc1Cl` (centres unmarked) [Example 458, 3-(2-Chloro-5-fluoro-phenyl)-3-{[1-(2-chloro-phenyl)-5-hydroxy-1H-pyrazole-3-carbonyl]-amino}-propionic acid], the half-inhibitory concentration (IC50) was 223 nM under setting [3] and 100 to 1000 nM under setting [4]. As to `COc1cccc([C@H](CC(=O)O)NC(=O)c2cc(O)n(-c3ccc(F)cc3)n2)c1` [Example 348], the IC50 under setting [1] lay in the range of 1000 to 30000 nM. `O=C(O)C[C@H](NC(=O)c1cc(O)n(-c2ccccc2Cl)n1)c1ccccc1Cl` [Example 507, (S)-3-(2-Chloro-phenyl)-3-{[1-(2-chloro-phenyl)-5-hydroxy-1H-pyrazole-3-carbonyl]-amino}-propionic acid]: the IC50 under setting [3] came to 161 nM and the IC50 under setting [4] lay in the range of 100 to 1000 nM. With `Cc1ccc([C@H](CC(=O)O)NC(=O)c2cc(OC[C@](C)(O)C(C)C)n(-c3ccccc3F)n2)cc1` [Example 860, (S)-3-{[1-(2-Fluoro-phenyl)-5-((R)-2-hydroxy-2,3-dimethyl-butoxy)-1H-pyrazole-3-carbonyl]-amino}-3-p-tolyl-propionic acid], the IC50 under setting [1] is < 100 nM and the IC50 under setting [3] was 76.1 nM.

`N#Cc1cccc([C@H](CC(=O)O)NC(=O)c2cc(O)n(-c3ccc(F)cc3F)n2)c1` [Example 381]: the IC50 under setting [1] fell in the range of 100 to 1000 nM. As to `Cc1ccccc1[C@H](CC(=O)O)NC(=O)c1cc(O)n(-c2ccccc2S(C)(=O)=O)n1` [Example 607], the concentration for half-maximal inhibition (IC50) under setting [2] is 1000 to 30000 nM. For `O=C(O)CC(NC(=O)c1cc(O)n(-c2ccccc2Cl)n1)c1ccc(-c2ccccc2Cl)cc1` (centres unmarked) [Example 591], the half-inhibitory concentration (IC50) under setting [2] lay in the range of 100 to 1000 nM. Consider `CC(C)[C@@](C)(O)COc1cc(C(=O)NC(CC(=O)O)C2CCCCC2)nn1-c1ccccc1F` (stereo partly drawn) [Example 786, 3-Cyclohexyl-3-{[1-(2-fluoro-phenyl)-5-((R)-2-hydroxy-2,3-dimethyl-butoxy)-1H-pyrazole-3-carbonyl]-amino}-propionic acid], for which the IC50 under setting [2] was < 100 nM.

Consider `O=C(O)C[C@H](NC(=O)c1cc(O)n(-c2ccccc2Cl)n1)c1ccccc1Br` [Example 204], for which the half-maximal inhibitory concentration (IC50) under setting [5] lay within 100 to 1000 nM. With `Cc1cccc(C(CC(=O)O)NC(=O)c2cc(O)n(-c3ccccc3Cl)n2)c1C` (centres unmarked) [Example 220], under setting [5], the half-maximal inhibitory concentration (IC50) was 100 to 1000 nM. With `COc1ccccc1[C@H](CC(=O)O)NC(=O)c1cc(OCC2CC2)n(-c2ccccc2F)n1` [Example 687], under setting [2], the half-inhibitory concentration (IC50) fell in the range of 100 to 1000 nM. With `COc1ccc([C@H](CC(=O)O)NC(=O)c2cc(O)n(-c3cccc(F)c3)n2)cn1` [Example 335], the IC50 under setting [1] was 100 to 1000 nM. As to `O=C(O)CC(NC(=O)c1cc(O)n(-c2ccc(F)cc2F)n1)c1ccc(-c2ccccc2)cc1` (centres unmarked) [Example 197], the concentration for half-maximal inhibition (IC50) under setting [5] fell in the range of 100 to 1000 nM. Consider `O=C(O)C[C@H](NC(=O)c1cc(O)n(-c2ccccc2)n1)c1ccccc1F` [Example 96], for which, under setting [1], the IC50 was in the range of 100 to 1000 nM.
